Test results: ChEMBL document CHEMBL4308841, “Synthesis, in vitro antiproliferative activity, and kinase inhibitory effects of pyrazole-containing diarylureas and diarylamides” (Eur J Med Chem, 2018)

Tests used:
[1] = system: K562; assay: Growth inhibition of human K562 cells incubated for 48 hrs by sulforhodamine B assay; format: functional, cell-based; conditions: K562, 48 h
[2] = system: NCI-H522; assay: Growth inhibition of human NCI-H522 cells incubated for 48 hrs by sulforhodamine B assay; format: functional, cell-based; conditions: NCI-H522, 48 h
[3] = system: COLO 205; assay: Growth inhibition of human COLO205 cells incubated for 48 hrs by sulforhodamine B assay; format: functional, cell-based; conditions: COLO 205, 48 h
[4] = system: SN12C; assay: Growth inhibition of human SN12C cells incubated for 48 hrs by sulforhodamine B assay; format: functional, cell-based
[5] = system: A549; assay: Growth inhibition of human A549/ATCC cells assessed as cell growth at 0.01 uM incubated for 48 hrs by sulforhodamine B assay relative to control; format: functional; conditions: A549, 48 h, read-out: Activity
[6] = system: NCI-H23; assay: Growth inhibition of human NCI-H23 cells assessed as cell growth at 0.01 uM incubated for 48 hrs by sulforhodamine B assay relative to control; format: functional; conditions: NCI-H23, 48 h, read-out: Activity
[7] = system: SNB-19; assay: Growth inhibition of human SNB19 cells assessed as cell growth at 0.01 uM incubated for 48 hrs by sulforhodamine B assay relative to control; format: functional; conditions: SNB-19, 48 h, read-out: Activity
[8] = system: MDA-MB-435; assay: Growth inhibition of human MDA-MB-435 cells assessed as cell growth at 0.01 uM incubated for 48 hrs by sulforhodamine B assay relative to control; format: functional; conditions: MDA-MB-435, 48 h, read-out: Activity
[9] = system: SK-MEL-2; assay: Growth inhibition of human SK-MEL-2 cells assessed as cell growth at 0.01 uM incubated for 48 hrs by sulforhodamine B assay relative to control; format: functional; conditions: SK-MEL-2, 48 h, read-out: Activity
[10] = system: OVCAR-8; assay: Growth inhibition of human OVCAR8 cells assessed as cell growth at 0.01 uM incubated for 48 hrs by sulforhodamine B assay relative to control; format: functional; conditions: OVCAR-8, 48 h, read-out: Activity
[11] = system: SK-OV-3; assay: Growth inhibition of human SKOV3 cells assessed as cell growth at 0.01 uM incubated for 48 hrs by sulforhodamine B assay relative to control; format: functional; conditions: SK-OV-3, 48 h, read-out: Activity
[12] = system: A498; assay: Growth inhibition of human A498 cells assessed as cell growth at 0.01 uM incubated for 48 hrs by sulforhodamine B assay relative to control; format: functional; conditions: A498, 48 h, read-out: Activity
[13] = system: BT-549; assay: Growth inhibition of human BT549 cells assessed as cell growth at 0.01 uM incubated for 48 hrs by sulforhodamine B assay relative to control; format: functional; conditions: BT-549, 48 h, read-out: Activity
[14] = system: SR; assay: Growth inhibition of human SR cells assessed as cell growth at 0.1 uM incubated for 48 hrs by sulforhodamine B assay relative to control; format: functional; conditions: read-out: Activity
[15] = system: KM12; assay: Growth inhibition of human KM12 cells assessed as cell growth at 0.1 uM incubated for 48 hrs by sulforhodamine B assay relative to control; format: functional; conditions: KM12, 48 h, read-out: Activity
[16] = system: NCI/ADR-RES; assay: Growth inhibition of human NCI/ADR-RES cells assessed as cell growth at 0.1 uM incubated for 48 hrs by sulforhodamine B assay relative to control; format: functional; conditions: read-out: Activity
[17] = system: DU-145; assay: Growth inhibition of human DU145 cells assessed as cell growth at 0.1 uM incubated for 48 hrs by sulforhodamine B assay relative to control; format: functional; conditions: DU-145, 48 h, read-out: Activity
[18] = system: MDA-MB-231; assay: Growth inhibition of human MDA-MB-231 cells assessed as cell growth at 0.1 uM incubated for 48 hrs by sulforhodamine B assay relative to control; format: functional; conditions: MDA-MB-231, 48 h, read-out: Activity
[19] = system: Hs-578T; assay: Growth inhibition of human Hs578T cells assessed as cell growth at 0.1 uM incubated for 48 hrs by sulforhodamine B assay relative to control; format: functional; conditions: read-out: Activity
[20] = system: MDA-MB-468; assay: Growth inhibition of human MDA-MB-468 cells assessed as cell growth at 0.1 uM incubated for 48 hrs by sulforhodamine B assay relative to control; format: functional; conditions: MDA-MB-468, 48 h, read-out: Activity
[21] = system: NCI-H226; assay: Growth inhibition of human NCI-H226 cells assessed as cell growth at 1 uM incubated for 48 hrs by sulforhodamine B assay relative to control; format: functional; conditions: NCI-H226, 48 h, read-out: Activity
[22] = system: SF-539; assay: Growth inhibition of human SF539 cells assessed as cell growth at 1 uM incubated for 48 hrs by sulforhodamine B assay relative to control; format: functional; conditions: SF-539, 48 h, read-out: Activity
[23] = system: LOX IMVI; assay: Growth inhibition of human LOXIMVI cells assessed as cell growth at 1 uM incubated for 48 hrs by sulforhodamine B assay relative to control; format: functional; conditions: read-out: Activity
[24] = system: SK-MEL-5; assay: Growth inhibition of human SK-MEL-5 cells assessed as cell growth at 1 uM incubated for 48 hrs by sulforhodamine B assay relative to control; format: functional; conditions: SK-MEL-5, 48 h, read-out: Activity
[25] = system: BT-549; assay: Growth inhibition of human BT549 cells assessed as cell growth at 1 uM incubated for 48 hrs by sulforhodamine B assay relative to control; format: functional; conditions: BT-549, 48 h, read-out: Activity
[26] = system: HT-29; assay: Growth inhibition of human HT-29 cells assessed as cell growth at 100 uM incubated for 48 hrs by sulforhodamine B assay relative to control; format: functional; conditions: HT-29, 48 h, read-out: Activity
[27] = system: SW-620; assay: Growth inhibition of human SW620 cells assessed as cell growth at 100 uM incubated for 48 hrs by sulforhodamine B assay relative to control; format: functional; conditions: SW-620, 48 h, read-out: Activity
[28] = system: SF-268; assay: Growth inhibition of human SF268 cells assessed as cell growth at 100 uM incubated for 48 hrs by sulforhodamine B assay relative to control; format: functional; conditions: SF-268, 48 h, read-out: Activity
[29] = system: MDA-MB-435; assay: Growth inhibition of human MDA-MB-435 cells assessed as cell growth at 100 uM incubated for 48 hrs by sulforhodamine B assay relative to control; format: functional; conditions: MDA-MB-435, 48 h, read-out: Activity
[30] = system: IGROV-1; assay: Growth inhibition of human IGROV1 cells assessed as cell growth at 100 uM incubated for 48 hrs by sulforhodamine B assay relative to control; format: functional; conditions: IGROV-1, 48 h, read-out: Activity
[31] = read-out: LC50 (the source's name)
[32] = read-out: pLC50 (the source's name) (converted)

COc1cc(Cl)cc(-c2nn(-c3cccc(NC(=O)Nc4ccc(Cl)c(C(F)(F)F)c4)c3)cc2-c2ccncc2)c1
GI50 ([1]; read-out: GI50): 0.537 µM
LC50 ([1]; read-out: LC50): 9.55 µM
TGI ([1]; read-out: TGI): 10.1 µM
GI50 ([1]; read-out: pGI50 (converted)): 5.37 µM
LC50 ([1]; read-out: pLC50 (converted)): 95.5 µM
TGI ([1]; read-out: pTGI (converted)): 10 µM
GI50 ([2]; read-out: GI50): 0.418 µM
CC50 [2, 31]: 9.74 µM
TGI ([2]; read-out: TGI): 25 µM
GI50 ([2]; read-out: pGI50 (converted)): 0.417 µM
CC50 [2, 32]: 9.77 µM
TGI ([2]; read-out: pTGI (converted)): 2.51 µM
GI50 ([3]; read-out: GI50): 1.53 µM
CC50 [3, 31]: 6.33 µM
TGI ([3]; read-out: TGI): 31.1 µM
GI50 ([3]; read-out: pGI50 (converted)): 1.51 µM
CC50 [3, 32]: 6.31 µM
TGI ([3]; read-out: pTGI (converted)): 3.09 µM
GI50 ([4]; read-out: GI50): 1.56 µM
LC50 ([4]; read-out: LC50): > 100 µM
TGI ([4]; read-out: TGI): 82.1 µM
GI50 ([4]; read-out: pGI50 (converted)): 1.55 µM
LC50 ([4]; read-out: pLC50 (converted)): > 100 µM
TGI ([4]; read-out: pTGI (converted)): 8.13 µM
growth at 0.01 µM [5]: 97%
growth at 0.01 µM [6]: 90%
growth at 0.01 µM [7]: 92%
growth at 0.01 µM [8]: 95%
growth at 0.01 µM [9]: 102%
growth at 0.01 µM [10]: 98%
growth at 0.01 µM [11]: 104%
growth at 0.01 µM [12]: 57%
growth at 0.01 µM [13]: 92%
growth at 0.1 µM [14]: 92%
growth at 0.1 µM [15]: 98%
growth at 0.1 µM [16]: 69%
growth at 0.1 µM [17]: 98%
growth at 0.1 µM [18]: 91%
growth at 0.1 µM [19]: 90%
growth at 0.1 µM [20]: 91%
growth at 1 µM [21]: 79%
growth at 1 µM [22]: 75%
growth at 1 µM [23]: 61%
growth at 1 µM [24]: 83%
growth at 1 µM [25]: 92%
growth at 100 µM [26]: -84%
growth at 100 µM [27]: -58%
growth at 100 µM [28]: -58%
growth at 100 µM [29]: -40%
growth at 100 µM [30]: -16%

COc1cc(Cl)cc(-c2nn(-c3cccc(NC(=O)c4ccc(N5CCOCC5)c(C(F)(F)F)c4)c3)cc2-c2ccncc2)c1
GI50 ([1]; read-out: GI50): 3.1 µM
LC50 ([1]; read-out: LC50): > 100 µM
TGI ([1]; read-out: TGI): > 100 µM
GI50 ([1]; read-out: pGI50 (converted)): 3.09 µM
LC50 ([1]; read-out: pLC50 (converted)): > 100 µM
TGI ([1]; read-out: pTGI (converted)): > 100 µM
GI50 ([2]; read-out: GI50): 4.72 µM
CC50 [2, 31]: > 100 µM
TGI ([2]; read-out: TGI): > 100 µM
GI50 ([2]; read-out: pGI50 (converted)): 4.68 µM
CC50 [2, 32]: > 100 µM
TGI ([2]; read-out: pTGI (converted)): > 100 µM
GI50 ([3]; read-out: GI50): 2.22 µM
CC50 [3, 31]: > 100 µM
TGI ([3]; read-out: TGI): > 100 µM
GI50 ([3]; read-out: pGI50 (converted)): 22.4 µM
CC50 [3, 32]: > 100 µM
TGI ([3]; read-out: pTGI (converted)): > 100 µM
GI50 ([4]; read-out: GI50): > 100 µM
LC50 ([4]; read-out: LC50): > 100 µM
TGI ([4]; read-out: TGI): > 100 µM
GI50 ([4]; read-out: pGI50 (converted)): > 100 µM
LC50 ([4]; read-out: pLC50 (converted)): > 100 µM
TGI ([4]; read-out: pTGI (converted)): > 100 µM
growth at 0.01 µM [5]: 103%
growth at 0.01 µM [6]: 92%
growth at 0.01 µM [7]: 96%
growth at 0.01 µM [8]: 97%
growth at 0.01 µM [9]: 96%
growth at 0.01 µM [10]: 99%
growth at 0.01 µM [11]: 102%
growth at 0.01 µM [12]: 59%
growth at 0.01 µM [13]: 104%
growth at 0.1 µM [14]: 91%
growth at 0.1 µM [15]: 95%
growth at 0.1 µM [16]: 99%
growth at 0.1 µM [17]: 97%
growth at 0.1 µM [18]: 97%
growth at 0.1 µM [19]: 92%
growth at 0.1 µM [20]: 92%
growth at 1 µM [21]: 54%
growth at 1 µM [22]: 57%
growth at 1 µM [23]: 95%
growth at 1 µM [24]: 50%
growth at 1 µM [25]: 59%
growth at 100 µM [26]: -17%
growth at 100 µM [27]: 22%
growth at 100 µM [28]: 53%
growth at 100 µM [29]: 42%
growth at 100 µM [30]: 54%
